US7109338B2, “1,2-disubstituted 1,4-dihydro-4-oxoquinoline compounds” (priority 1999, dated 2006)
Converted amounts (≈) assume the structure as drawn. Read-outs that look alike come from different tables or passages of the source.

Tests used:
[1] = test system: Poliovirus type 1 (Polio 1, Sabin); experiment: microbe, parasite or virus in culture; assay type: cell-based
[2] = test system: echovirus type 11 (Echo 11, Gregory); experiment: In vitro anti-picornavirus activity (MTT), Echo 11; assay type: cell-based; details: HeLa-S3 cells, MTT method, 37° C.
[3] = test system: coxsackievirus type A7 (CA7); experiment: In vitro anti-picornavirus activity (MTT), CA7; assay type: cell-based; details: HeLa-S3 cells, MTT method, 37° C.
[4] = test system: coxsackievirus type B4 (CB4,JVB); experiment: In vitro anti-picornavirus activity (MTT), CB4; assay type: cell-based; details: HeLa cells, MTT method, 37° C.
HRV1A (E28) = experiment: Anti-rhinovirus activity (MTT), HRV1A; assay type: cell-based, human rhinovirus
[5] = test system: human rhinovirus type 1B (HRV 1B, B632); experiment: Anti-rhinovirus activity (MTT), HRV1B; assay type: cell-based; design: Anti-Rhinovirus activity, HRV1B: unit not given here
HRV 2 (HGP) = experiment: Anti-rhinovirus activity (MTT), HRV2; assay type: cell-based, human rhinovirus; design: Anti-Rhinovirus activity, HRV2: unit not given here
HRV14 (1059) = experiment: Anti-rhinovirus activity (MTT), HRV14; assay type: cell-based, human rhinovirus; details: Table VII, rhinovirus serotype HRV14
HRV 89 (41617-Gallo) = experiment: Anti-rhinovirus activity (MTT), HRV89; assay type: cell-based, human rhinovirus; design: Anti-Rhinovirus activity, HRV89: unit not given here
HRV3(FEB) = experiment: Anti-rhinovirus spectrum (MTT), HRV3; assay type: cell-based, human rhinovirus; details: Table VII, rhinovirus serotype HRV3
HRV5 = experiment: Anti-rhinovirus spectrum (MTT), HRV5; assay type: cell-based, human rhinovirus; details: Table VII, rhinovirus serotype HRV5
HRV8(MRH) = experiment: Anti-rhinovirus spectrum (MTT), HRV8; assay type: cell-based, human rhinovirus; details: Table VII, rhinovirus serotype HRV8
HRV10 (204-CV14) = experiment: Anti-rhinovirus spectrum (MTT), HRV10; assay type: cell-based, human rhinovirus; details: Table VII, rhinovirus serotype HRV10
HRV13 (353) = experiment: Anti-rhinovirus spectrum (MTT), HRV13; assay type: cell-based, human rhinovirus; details: Table VII, rhinovirus serotype HRV13
HRV16 (11757) = experiment: Anti-rhinovirus spectrum (MTT), HRV16; assay type: cell-based, human rhinovirus; details: Table VII, rhinovirus serotype HRV16
HRV21 (47) = experiment: Anti-rhinovirus spectrum (MTT), HRV21; assay type: cell-based, human rhinovirus; details: Table VII, rhinovirus serotype HRV21
HRV29 (5582) = experiment: Anti-rhinovirus spectrum (MTT), HRV29; assay type: cell-based, human rhinovirus; details: Table VII, rhinovirus serotype HRV29
HRV31 (41F) = experiment: Anti-rhinovirus spectrum (MTT), HRV31; assay type: cell-based, human rhinovirus; details: Table VII, rhinovirus serotype HRV31
HRV32 (363) = experiment: Anti-rhinovirus spectrum (MTT), HRV32; assay type: cell-based, human rhinovirus; details: Table VII, rhinovirus serotype HRV32
HRV33 (1200) = experiment: Anti-rhinovirus spectrum (MTT), HRV33; assay type: cell-based, human rhinovirus; details: Table VII, rhinovirus serotype HRV33
HRV36 (342H) = experiment: Anti-rhinovirus spectrum (MTT), HRV36; assay type: cell-based, human rhinovirus; details: Table VII, rhinovirus serotype HRV36
HRV39 (209) = experiment: Anti-rhinovirus spectrum (MTT), HRV39; assay type: cell-based, human rhinovirus; details: Table VII, rhinovirus serotype HRV39
HRV41 (56110) = experiment: Anti-rhinovirus spectrum (MTT), HRV41; assay type: cell-based, human rhinovirus; details: Table VII, rhinovirus serotype HRV41
HRV50(A2#58) = experiment: Anti-rhinovirus spectrum (MTT), HRV50; assay type: cell-based, human rhinovirus
HRV61 (6669-CV39) = experiment: Anti-rhinovirus spectrum (MTT), HRV61; assay type: cell-based, human rhinovirus; details: Table VII, rhinovirus serotype HRV61
[6] = test system: clinical isolate (89229T); experiment: microbe, parasite or virus in culture; assay type: cell-based, human rhinovirus; details: Table VII, clinical isolate (89229T)
[7] = Cytotoxicity (MTT, without virus), HeLa; details: human, HeLa cells (uninfected)
[8] = Cytotoxicity (MTT, without virus), HeLa-S3; details: human, HeLa-S3 cells (uninfected)
[9] = Cytotoxicity (MTT, without virus), HeLa(Ohio); details: human, HeLa (Ohio strain) cells (uninfected)
[10] = test system: Human rotavirus (HROV, Odelia); experiment: In vitro anti-rotavirus activity (plaque reduction), HRoV; assay type: cell-based; details: MA104 cells, four days after infection
Method: (§1) Human rotavirus (HROV, Odelia) and simian rotavirus (SRoV, SA11) were used in this experiment. Confluent monolayers of MA104 cells in 6-well multiplate were washed with Eagle MEM containing 0.5 μg/ml of trypsin and were infected with tripsinized-rotavirus (treated with 10 μg/ml of tripsin at 37° C. for 1.5 hr) at 50 PFU per well. After 1 hr of adsorption, the virus inoculum was removed, and the monolayers were washed with Eagle MEM containing 0.5 μg/ml of trypsin and overlaid with Eagle MEM containing 1 μg/ml of trypsin, 0.6% purified agar and the test compounds at various concentrations. The cultures were incubated at 37° C. for 3 days and same overlay medium was added. Four days after infection, the cell sheets were washed with PBS and stained with 1.3% crystal violet in 95% ethanol. The antiviral efficacy of the compounds was expressed as the IC50, that is the concentration of the compounds required to reduce the number of plaques to 50% in the control (virus-infected, but […]).

[11] = test system: simian rotavirus (SRoV, SA11); experiment: In vitro anti-rotavirus activity (plaque reduction), SRoV; assay type: cell-based; details: MA104 cells, four days after infection
Method: as §1

HeLa cells = experiment: Cytotoxicity (MTT, without virus), HeLa; details: HeLa, no virus, incubated for 4 days
HeLa-S3 cells = experiment: Cytotoxicity (MTT, without virus), HeLa-S3; details: HeLa-S3, no virus, incubated for 4 days
HeLa (Ohio strain)cells = experiment: Cytotoxicity (MTT, without virus), HeLa(Ohio); details: HeLa(Ohio), no virus, incubated for 4 days
[12] = HeLa (Ohio strain) cells, MTT method, 33° C.

Cc1c(-c2ccccc2)n(-c2ccccc2)c2ccc(C(C)C)cc2c1=O [Compound A320, 1,2-Diphenyl-3-methyl-6-isopropyl-1,4-dihydro-4-oxoquinoline]
IC50 ([1]; Enterovirus C, HeLa S3, read-out: IC50 Polio 1): > 5 µg/mL
IC50 ([2]; Enterovirus B): 0.15 µg/mL (≈ 0.424 µM)
IC50 ([3]; Coxsackievirus): > 5 µg/mL
IC50 ([4]; Coxsackievirus): > 5 µg/mL
IC50 (HRV1A (E28); Enterovirus, HRV1A, read-out: Anti-rhinovirus activity HRV1A): > 5 µg/mL
IC50 ([5]; Human rhinovirus sp., HRV1B, HeLa (Ohio strain) cells, MTT method, 33° C., read-out: IC50 HRV1B): 0.12 µg/mL (≈ 0.339 µM)
IC50 ([5]; Table VII, rhinovirus serotype HRV1B, read-out: Anti-rhinovirus activity HRV1B): 0.12 µg/mL (≈ 0.339 µM)
IC50 (HRV 2 (HGP); Enterovirus, Table VII, rhinovirus serotype HRV2, read-out: Anti-rhinovirus activity HRV2): 0.051 µg/mL (≈ 0.144 µM)
IC50 (HRV 2 (HGP); Human rhinovirus sp., HRV2, HeLa (Ohio strain) cells, MTT method, 33° C., read-out: IC50 HRV2): 0.051 µg/mL (≈ 0.144 µM)
IC50 (HRV14 (1059); Enterovirus, read-out: Anti-rhinovirus activity HRV14): > 5 µg/mL
IC50 (HRV 89 (41617-Gallo); Enterovirus, Table VII, rhinovirus serotype HRV89, read-out: Anti-rhinovirus activity HRV89): 0.051 µg/mL (≈ 0.144 µM)
IC50 (HRV 89 (41617-Gallo); Human rhinovirus sp., HRV89, HeLa (Ohio strain) cells, MTT method, 33° C., read-out: IC50 HRV89): 0.051 µg/mL (≈ 0.144 µM)
IC50 (HRV3(FEB); Enterovirus): > 5 µg/mL
IC50 (HRV5; Enterovirus): > 5 µg/mL
IC50 (HRV8(MRH); Enterovirus): > 5 µg/mL
IC50 (HRV10 (204-CV14); Enterovirus): 0.021 µg/mL (≈ 0.0594 µM)
IC50 (HRV13 (353); Enterovirus): 0.23 µg/mL (≈ 0.651 µM)
IC50 (HRV16 (11757); Enterovirus): 0.023 µg/mL (≈ 0.0651 µM)
IC50 (HRV21 (47); Enterovirus): 0.024 µg/mL (≈ 0.0679 µM)
IC50 (HRV29 (5582); Enterovirus): 0.079 µg/mL (≈ 0.224 µM)
IC50 (HRV31 (41F); Enterovirus): 0.046 µg/mL (≈ 0.13 µM)
IC50 (HRV32 (363); Enterovirus): 0.051 µg/mL (≈ 0.144 µM)
IC50 (HRV33 (1200); Enterovirus): 0.23 µg/mL (≈ 0.651 µM)
IC50 (HRV36 (342H); Enterovirus): 0.082 µg/mL (≈ 0.232 µM)
IC50 (HRV39 (209); Enterovirus): < 0.017 µg/mL
IC50 (HRV41 (56110); Enterovirus): 0.066 µg/mL (≈ 0.187 µM)
IC50 (HRV50(A2#58); Enterovirus, HRV50, read-out: Anti-rhinovirus activity HRV50): 0.02 µg/mL (≈ 0.0566 µM)
IC50 (HRV61 (6669-CV39); Enterovirus): 0.21 µg/mL (≈ 0.594 µM)
IC50 ([6]; Human rhinovirus sp., read-out: Anti-rhinovirus activity Clinically isolated strain): 0.017 µg/mL (≈ 0.0481 µM)
melting point: 225 °C
CC50 at 4 days [7]: > 5 µg/mL
CC50 at 4 days [8]: > 5 µg/mL
CC50 at 4 days [9]: > 5 µg/mL

Cc1c(-c2ccccc2)n(-c2ccc(F)cc2)c2ccc(C(C)C)cc2c1=O [Compound A323]
IC50 Polio 1 [1]: >2 µg/mL
IC50 Echo 11 [2]: >2 µg/mL
IC50 CA7 [3]: >2 µg/mL
IC50 CB4 [4]: >2 µg/mL
Anti-Rhinovirus activity, HRV1A (HRV1A (E28); Table VII, rhinovirus serotype HRV1A, same method as above): >2.0
IC50 HRV1B [5, 12]: 0.27 µg/mL (≈ 0.727 µM)
Anti-Rhinovirus activity, HRV1B ([5]; Table VII, rhinovirus serotype HRV1B): 0.27
IC50 HRV2 (HRV 2 (HGP); [12]): 0.038 µg/mL (≈ 0.102 µM)
Anti-Rhinovirus activity, HRV2 (HRV 2 (HGP); Table VII, rhinovirus serotype HRV2): 0.038
Anti-Rhinovirus activity, HRV14 (HRV14 (1059)): >2.0
IC50 HRV89 (HRV 89 (41617-Gallo); [12]): 0.011 µg/mL (≈ 0.0296 µM)
Anti-Rhinovirus activity, HRV89 (HRV 89 (41617-Gallo); Table VII, rhinovirus serotype HRV89): 0.011
Anti-Rhinovirus activity, HRV3 (HRV3(FEB)): >2.0
Anti-Rhinovirus activity, HRV5 (HRV5): >2.0
Anti-Rhinovirus activity, HRV8 (HRV8(MRH)): >2.0
Anti-Rhinovirus activity, HRV10 (HRV10 (204-CV14)): 0.032
Anti-Rhinovirus activity, HRV13 (HRV13 (353)): 0.12
Anti-Rhinovirus activity, HRV16 (HRV16 (11757)): 0.033
Anti-Rhinovirus activity, HRV21 (HRV21 (47)): 0.067
Anti-Rhinovirus activity, HRV29 (HRV29 (5582)): 0.11
Anti-Rhinovirus activity, HRV31 (HRV31 (41F)): 0.088
Anti-Rhinovirus activity, HRV32 (HRV32 (363)): 0.077
Anti-Rhinovirus activity, HRV33 (HRV33 (1200)): 0.30
Anti-Rhinovirus activity, HRV36 (HRV36 (342H)): 0.13
Anti-Rhinovirus activity, HRV39 (HRV39 (209)): 0.018
Anti-Rhinovirus activity, HRV41 (HRV41 (56110)): 0.058
Anti-Rhinovirus activity, HRV50 (HRV50(A2#58); Table VII, rhinovirus serotype HRV50): 0.038
Anti-Rhinovirus activity, HRV61 (HRV61 (6669-CV39)): 0.30
Anti-rhinovirus activity Clinically isolated strain [6]: 0.030
Anti-rotavirus activity IC50 HRoV(Odelia) [10]: 1.30 µg/mL
Anti-rotavirus activity IC50 SRoV(SA11) [11]: 0.90 µg/mL
Cytotoxicity CC50 HeLa (HeLa cells): >2 µg/mL
Cytotoxicity CC50 HeLa-S3 (HeLa-S3 cells): >2 µg/mL
Cytotoxicity CC50 HeLa(Ohio) (HeLa (Ohio strain)cells): >2 µg/mL
